From ChEMBL document CHEMBL1157003, “'Novel alkyl side chain sulfone 1alpha,25-dihydroxyvitamin D3 analogs: a comparison of in vitro antiproliferative activities and in vivo calcemic activities'” (2009)
Active and inactive are the calls of the source. The calls are words filed in the database; no cut-off is given here.

What was measured:
Rattus norvegicus = assay: Inhibition of calciuria in rat at 10 ug/kg, po administered qd for 1 week; type: functional, organism-based
Keratinocyte = assay: Antiproliferative activity against mouse keratinocytes; type: functional, cell-based
[1] = Antiproliferative activity against mouse keratinocytes at 10 nM relative to calcitrol; type: functional, Keratinocyte

Structure (SMILES)	inhibition (Rattus norvegicus)	Activity (Keratinocyte)	Ratio [1]
C=C1/C(=C\C=C2/CCC[C@]3(C)C([C@H](C)CCCS(=O)(=O)C(C)C)=CC[C@@H]23)C[C@@H](O)C[C@@H]1O	Active	Active	
C=C1/C(=C\C=C2/CCC[C@]3(C)C([C@H](C)CCCS(=O)(=O)C(F)(F)F)=CC[C@@H]23)C[C@@H](O)C[C@@H]1O	Active		2
C=C1/C(=C\C=C2/CCC[C@]3(C)C([C@H](C)CCCS(C)(=O)=O)=CC[C@@H]23)C[C@@H](O)C[C@@H]1O	Active	Active	
C=C1/C(=C\C=C2/CCC[C@]3(C)[C@@H]([C@H](C)CCCC(C)(C)O)CC[C@@H]23)C[C@@H](O)C[C@@H]1O	Active		
